Values joined by “and” are separate entries in the source; they are usually repeats but may differ in a detail not shown here. Equal entries are not always repeated. Some results are limits rather than exact numbers.

A short description of data set [1]: Cytotoxicity MTT assay, MDCK normal cell line. The note with it: dog, MDCK cells (normal cell line), read-out: Cytotoxic activity CC50. In kind it is cell-based. Here is the method:
(§1) Three types of cancer cell lines obtained from the American Type Culture Collection (ATCC) were cultured: two oral-laryngeal cancer cell lines, nasopharynx carcinoma (KB, ATCC-CCL-17) and laryngeal carcinoma (Hep-2, ATCC-CCL-23); two cervix-uterine cancer cell lines, cervix adenocarcinoma (HeLa, ATCC-CCL-2) and cervix squamous carcinoma (SiHa, ATCC-HTB-35); and two prostate cancer cell lines, prostate carcinoma (DU-145, ATCC-HTB-81) and prostate adenocarcinoma (PC-3, ATCC-CRL-1435); along with one normal cell line (MDCK, ATCC-CCL-34). The cells were cultured in sterile Costar T75 flasks containing DMEM (Gibco, Hong Kong, China), supplemented with fetal bovine serum (10%, v/v), 100 U/mL penicillin G, and […] streptomycin at 37 °C in an atmosphere of 5% CO2 (95% humidity). At 70%–80% confluence, cells were detached from the cultured flask by treatment with 0.05% trypsin-EDTA (Gibco), and a suspension of 5 × 10^4 cells/mL of viable cells was seeded in a 96-well microtiter plate (Costar, Washington, DC, USA) and incubated. Cytotoxicity was assessed by the MTT assay as previously described by Rahman. When cells reached 90% confluence in a microtiter plate, the DMEM was replaced with fresh medium and cells were incubated with compounds at various concentrations. […] The medium was aspirated, and the formazan product was solubilized with acidified isopropanol (0.4 N HCl). The amount of MTT-formazan is directly proportional to the number of living cells and was determined by measuring the optical density (OD) at 590 nm using a bioassay reader (Bio-Rad). All determinations were performed in triplicate. The cytotoxic and antiproliferative activities of tested compounds were calculated as the percentage of cells killed or the percentage of inhibition of cell proliferation, respectively, using the equation: growth inhibition (%) = (ODcontrol − ODsample/ODcontrol) × 100. […] In addition, the level of cytotoxicity on normal cells was evaluated by determining the selectivity index (SI) of each compound, which is calculated as the ratio of cytotoxicity or reduced cell growth on normal cells to cancer cells (SI = normal cells/cancer cells).
Background: Tetrazolium dyes change colour on reduction, which living cells bring about.

Data set [2] concerns DU-145. The experiment in a line: Antiproliferative sulforhodamine B assay, DU-145. Conditions: for IC50: Homo sapiens, DU-145, SRB, 48 h. It is filed as cell-based, human. How it is done:
(§2) Three types of cancer cell lines obtained from the American Type Culture Collection (ATCC) were cultured: two oral-laryngeal cancer cell lines, nasopharynx carcinoma (KB, ATCC-CCL-17) and laryngeal carcinoma (Hep-2, ATCC-CCL-23); two cervix-uterine cancer cell lines, cervix adenocarcinoma (HeLa, ATCC-CCL-2) and cervix squamous carcinoma (SiHa, ATCC-HTB-35); and two prostate cancer cell lines, prostate carcinoma (DU-145, ATCC-HTB-81) and prostate adenocarcinoma (PC-3, ATCC-CRL-1435); along with one normal cell line (MDCK, ATCC-CCL-34). The cells were cultured in sterile Costar T75 flasks containing DMEM (Gibco, Hong Kong, China), supplemented with fetal bovine serum (10%, v/v), 100 U/mL penicillin G, and […] streptomycin at 37 °C in an atmosphere of 5% CO2 (95% humidity). At 70%–80% confluence, cells were detached from the cultured flask by treatment with 0.05% trypsin-EDTA (Gibco), and a suspension of 5 × 10^4 cells/mL of viable cells was seeded in a 96-well microtiter plate (Costar, Washington, DC, USA) and incubated.
(§3) The growth inhibition of cancer cells was evaluated by the sulforhodamine B method. When cells reached 70% confluence in a microtiter plate, the medium was replaced with DMEM 5% FBS and samples at various concentrations. After 48 h, the medium was discarded, and cells were fixed by adding 50 μL of 10% trichloroacetic acid (TCA, Sigma-Aldrich Chemical, St. Louis, MO, USA). The cells were then incubated at 4 °C for 30 min; TCA was drained off, and the plates were left to dry. Then, 50 μL of SRB stain (10 mg of 1% acetic acid, Sigma) were added to each well for 30 min. Finally, the plates were washed four times with 1% acetic acid (100 μL). The OD was measured at 540 nm using an ELISA reader (Bio-Rad). Docetaxel was used as a positive control, whereas cells incubated only with 0.05% of DMSO were used as a negative control. All determinations were performed in triplicate.
(§4) The cytotoxic and antiproliferative activities of tested compounds were calculated as the percentage of cells killed or the percentage of inhibition of cell proliferation, respectively, using the equation: growth inhibition (%) = (ODcontrol − ODsample/ODcontrol) × 100. […] In addition, the level of cytotoxicity on normal cells was evaluated by determining the selectivity index (SI) of each compound, which is calculated as the ratio of cytotoxicity or reduced cell growth on normal cells to cancer cells (SI = normal cells/cancer cells). It is generally considered that biological efficacy is not due to general toxicity when SI ≥ 10 [17].
In general terms: Sulforhodamine B stains cellular protein and so reports cell mass.

For data set [3], the system named is DU-145. The experiment in a line: Cytotoxicity MTT assay, DU-145 prostate carcinoma. In kind it is cell-based, human. Conditions: Homo sapiens; DU-145, MTT, 72 h; read-out: Cytotoxic activity CC50. How it is done: as §1
Data set [4] is described as follows: Cytotoxicity MTT assay, DU-145 prostate carcinoma. It is filed as cell-based, human. Conditions: human, MDCK normal cells versus DU-145 prostate carcinoma cells; CC50 MDCK normal cells / DU-145; read-out: Selectivity index (SI) of cytotoxic activity. How it is done:
as §1

Data set [5] deals with Hep-2. The experiment in a line: Cytotoxicity MTT assay, Hep-2 laryngeal carcinoma. In kind it is cell-based, human. Conditions: Homo sapiens; Hep-2, MTT, 72 h; read-out: Cytotoxic activity CC50. How it is done: as §1
For data set [6], the system named is PC-3. The experiment in a line: Cytotoxicity MTT assay, PC-3 prostate adenocarcinoma. In kind it is cell-based, human. Conditions: Homo sapiens; PC-3, MTT, 72 h; read-out: Cytotoxic activity CC50. Here is the method:
as §1

Assay in data set [7]: as above
In kind it is cell-based, human. Conditions: human, MDCK normal cells versus PC-3 prostate adenocarcinoma cells; CC50 MDCK normal cells / PC-3; read-out: Selectivity index (SI) of cytotoxic activity. Here is the method:
as §1

For data set [8], the system named is PC-3. The experiment in a line: Antiproliferative sulforhodamine B assay, PC-3. In kind it is cell-based. The note with it: Homo sapiens; PC-3, SRB, 48 h. Here is the method:
as §2, §3, §4

The subject of data set [9] is KB. The experiment in a line: Cytotoxicity MTT assay, KB nasopharynx carcinoma. Conditions: Homo sapiens; KB, MTT, 72 h; read-out: Cytotoxic activity CC50. It is filed as cell-based, human. Here is the method:
as §1

Data set [10] relates to Hep-2. The experiment in a line: Antiproliferative sulforhodamine B assay, Hep-2. It is filed as cell-based, human. Conditions: for IC50: Homo sapiens, Hep-2, SRB, 48 h. How it is done: as §2, §3, §4
Data set [11] deals with MDCK. The experiment in a line: Antiproliferative sulforhodamine B assay, MDCK normal cell line. Conditions: Canis lupus familiaris, SRB, 48 h. In kind it is cell-based. Here is the method: as §2, §3, §4
The test system of data set [12] is HeLa. The experiment in a line: Antiproliferative sulforhodamine B assay, HeLa. It is filed as cell-based, human. The note with it: for IC50: Homo sapiens, HeLa, SRB, 48 h. Here is the method: as §2, §3, §4
Data set [13] deals with HeLa. The experiment in a line: Cytotoxicity MTT assay, HeLa cervix adenocarcinoma. It is filed as cell-based, human. The note with it: Homo sapiens; HeLa, MTT, 72 h; read-out: Cytotoxic activity CC50. Here is the method:
as §1

The subject of data set [14] is SiHa. The experiment in a line: Antiproliferative sulforhodamine B assay, SiHa. In kind it is cell-based, human. The note with it: for IC50: Homo sapiens, SiHa, SRB, 48 h; for Selectivity index (SI) of antiproliferative activity: IC50 MDCK normal cells / SiHa. Here is the method:
as §2, §3, §4

The test system of data set [15] is KB. The experiment in a line: Antiproliferative sulforhodamine B assay, KB. It is filed as cell-based, human. The note with it: for IC50: Homo sapiens, KB, SRB, 48 h; for Selectivity index (SI) of antiproliferative activity: IC50 MDCK normal cells / KB. Here is the method: as §2, §3, §4
Data set [16] concerns SiHa. The experiment in a line: Cytotoxicity MTT assay, SiHa cervix squamous carcinoma. It is filed as cell-based, human. The note with it: Homo sapiens; SiHa, MTT, 72 h; read-out: Cytotoxic activity CC50. Here is the method: as §1
Data set [17] can be described thus: Cytotoxicity MTT assay, Hep-2 laryngeal carcinoma. In kind it is cell-based, human. The note with it: dog MDCK normal cells versus Hep-2 laryngeal carcinoma cells; CC50 MDCK normal cells / Hep-2; read-out: Selectivity index (SI) of cytotoxic activity. How it is done: as §1
Data set [18] is described as follows: Cytotoxicity MTT assay, KB nasopharynx carcinoma. It is filed as cell-based, human. Conditions: human, MDCK normal cells versus KB nasopharynx carcinoma cells; CC50 MDCK normal cells / KB; read-out: Selectivity index (SI) of cytotoxic activity. How it is done: as §1
Data set [19] can be described thus: Cytotoxicity MTT assay, HeLa cervix adenocarcinoma. The note with it: human, MDCK normal cells versus HeLa cervix adenocarcinoma cells; CC50 MDCK normal cells / HeLa; read-out: Selectivity index (SI) of cytotoxic activity. In kind it is cell-based, human. How it is done:
as §1

The nature of data set [20]: Cytotoxicity MTT assay, SiHa cervix squamous carcinoma. In kind it is cell-based, human. The note with it: human; CC50 MDCK normal cells / SiHa; read-out: Selectivity index (SI) of cytotoxic activity. How it is done:
as §1

Usually CC50 stands for the concentration that lowers cell viability or growth by half. Usually IC50 stands for the concentration that inhibits the measured activity by half. High values mean weaker potency, low ones greater potency. For `CC(C)=CCc1cc(C(=O)/C=C/c2ccccc2)c(O)c(CC=C(C)C)c1O` [Compound 2, spinochalcone A], the CC50 at 72 h in [1] is 92.1 µg/mL and 245 µM. Further, the IC50 was above 100 µM in data set [2]; above 100 µM in data set [8]; above 100 µM in data set [10]; 18.7 µg/mL and 50 µM in data set [11]; above 100 µM in data set [12]; above 100 µM in data set [14]. In data set [15], the IC50 was 6 µg/mL and 16 µM. The CC50 was 6.1 µg/mL and 16.3 µM in data set [3]; above 100 µg/mL in data set [5]; 9.7 µg/mL and 26 µM in data set [6]; above 100 µg/mL in data set [9]; above 100 µg/mL in [13]; above 100 µg/mL in data set [16]. The figures for the selectivity ratio at 72 h in data set [4] and in data set [7] were 15 and 9.4, respectively. Further, the “Selectivity index (SI) of antiproliferative activity” value (“Selectivity index (SI)” below) in data set [15] stood at 3.1.

On to `C=CC(C)(C)c1cc(C2COc3cc(O)ccc3C2)c(O)c(O)c1OC` (stereo not drawn) [Compound 4, secundiflorol G], for which, in [1], the CC50 at 72 h is 29.7 µg/mL and 83.4 µM. For the same molecule, the IC50 was above 100 µM in data set [2]; above 100 µM in [8]; above 100 µM in data set [10]; 25.4 µg/mL and 72 µM in [11]; above 100 µM in data set [12]; 21.2 µg/mL and 60 µM in data set [14]. The molecule also gave an IC50 in [15] above 100 µM. Further, the CC50 was 21.5 µg/mL and 60.6 µM in data set [3]; 3.9 µg/mL and 11 µM in [5]; 16.5 µg/mL and 46.4 µM in data set [6]; 5.3 µg/mL and 15 µM in data set [9]; 8.1 µg/mL and 23 µM in [13]; 14.7 µg/mL and 41.3 µM in data set [16]. Further, the selectivity ratio at 72 h worked out at 1.3 in data set [4]; 7.6 in [17]; 1.8 in data set [7]; 5.5 in data set [18]; 3.6 in data set [19]; 2 in [20]. The “Selectivity index (SI)” value in data set [14] was found to be 1.2.

For the molecule `CC(=O)O[C@@]12CO[C@@H]1C[C@H](O)[C@@]1(C)C(=O)[C@H](O)C3=C(C)[C@@H](OC(=O)[C@H](O)[C@@H](NC(=O)OC(C)(C)C)c4ccccc4)C[C@@](O)([C@@H](OC(=O)c4ccccc4)[C@H]21)C3(C)C` [Docetaxel, reference compound], in data set [1], the CC50 at 72 h was 1.1 µg/mL and 1.4 µM. Further, the IC50 in data set [2] is 0.01 µg/mL and 20 nM; in data set [8], 0.007 µg/mL and 10 nM; in data set [10], 0.05 µg/mL and 70 nM; in data set [11] it was 0.11 µg/mL and 140 nM; in data set [12] it was 0.03 µg/mL and 40 nM; in data set [14], 0.07 µg/mL and 100 nM. The IC50 in [15] is 0.04 µg/mL and 60 nM. For the same molecule, the “Selectivity index (SI)” value in data set [2] (IC50 MDCK normal cells / DU-145) came to 7; in data set [10] (IC50 MDCK normal cells / Hep-2) it was 2.0; in data set [12] (IC50 MDCK normal cells / HeLa), 3.5; in data set [14], 1.4; in data set [15] it was 2.3. Also, the CC50 in data set [3] was 0.007 µg/mL and 10 nM; in [5], 0.07 µg/mL and 100 nM; in data set [6], 0.07 µg/mL and 100 nM; in data set [9], 0.2 µg/mL and 300 nM; in data set [13] it was 0.19 µg/mL and 250 nM; in data set [16], 0.17 µg/mL and 220 nM. The selectivity ratio at 72 h in data set [4] came out at 140; in data set [17] it was 14; in data set [7], 14; in [18] it was 4.6; in data set [19], 5.6; in data set [20], 6.3.

Source of the values: article PMC6332200, “Isolation and Identification of Cytotoxic Compounds from Aeschynomene fascicularis, a Mayan Medicinal Plant” (Molecules, 2015).
